According to PMC5773577, “Novel Miniature Membrane Active Lipopeptidomimetics against Planktonic and Biofilm Embedded Methicillin-Resistant Staphylococcus aureus” (Scientific Reports, 2018):
≈ marks a conversion by molar mass, not a printed value. Read-outs that look alike come from different tables or passages of the source. Non-standard residues stand in square brackets, D forms with d. Residues, ends and D or L forms follow the SMILES beside them. No end group written: not given here. d1Nal = N[C@H](Cc1cccc2ccccc12)C(=O)O; 12Ado = NCCCCCCCCCCCC(=O)O; Aoc = NCCCCCCCC(=O)O

How the values were obtained:
MRSA (ATCC 43300) = assay: microbe, parasite or virus in culture; format: cell-based, Staphylococcus aureus; conditions: MHB, 2–5 × 10^5 CFU/mL, 16–18 h, 37 °C, OD600
Protocol: (§1) The antibacterial activity was evaluated as MIC using slight modifications to a serial broth micro dilution method as reported previously[66],[67]. Briefly, to each treatment well of the 96-well plate (Corning Incorporated, USA) 10 μL of peptidomimetic/antibiotic was added and subsequently diluted serial 2-fold in 0.2% BSA (in 0.01% acetic acid). Then to each well of the first 11 columns 100 μL of mid-log phase bacterial suspension in MHB medium was added to get 2–5 × 10^5 CFU/mL. Cultures without test peptidomimetics/antibiotics were used as growth control. Uninoculated MHB medium was used as negative control. The microtitre plates were incubated overnight with agitation (180 rpm) at 37 °C. After 16–18 h incubation, absorbance was read at 600 nm using an ELISA plate reader (Molecular Devices, Sunnyvale, CA, USA). The experiments were carried out in duplicate on at least three different days.

[1] = tested on: Escherichia coli (ATCC 11775); format: cell-based
Protocol: as §1

[2] = tested on: Methicillin-resistant S. epidermidis (ATCC 35984); assay: microbe, parasite or virus in culture; format: cell-based, Staphylococcus epidermidis; conditions: MRSE ATCC 35984; MHB, 2–5 × 10^5 CFU/mL, 16–18 h, 37 °C, OD600
Protocol: as §1

[3] = tested on: 3T3 murine fibroblast cell line; assay: Cytotoxicity, MTT assay; format: cell-based; conditions: 3T3 fibroblasts, 2 h, DMEM with 10% FBS, mean ± S.D., triplicate on two days
Protocol: For the active peptidomimetics cytotoxicity was measured against 3T3 murine fibroblast cell line using a previously defined MTT assay with slight modifications. Briefly, the cells were grown to over 75% confluence in DMEM supplemented with 10% FBS and antibiotics (1 × Anti-anti) at 37 °C in 5% CO2 atmosphere. The cells were transferred to a 24-well plate to a final count of ~8 × 10^4 cells/well. […] The plates were kept for 2 h at 37 °C in 5% CO2 incubator. After 2 h, the cells were washed once with 1 mL PBS. Then 1 mL MTT (0.1 mg/mL) was added to each well in dark and incubated for 2 h at 37 °C in 5% CO2. After 2 h, 200 μL of DMSO was added to the wells to dissolve the formazan crystals formed and the plates were kept for 5 min in the incubator at 37 °C. 100 μL of the suspension was transferred to a fresh 96-well plate and absorbance (Asample) was measured at 570 nm in an ELISA plate reader (Molecular Devices, Sunnyvale, CA, USA). The wells with DMSO treatment were set as untreated control (Auntreated control). The assay was done in triplicate on two different days. The % survival was calculated using the following equation:2 %survival=[Asample/Auntreatedcontrol]×100

[4] = tested on: E. faecium (E-7846), clinical isolate of vancomycin-resistant E. faecium; assay: organism not typed; format: cell-based, Enterococcus faecium; conditions: VRE clinical isolate E-7846; MHB, 2–5 × 10^5 CFU/mL, 16–18 h, 37 °C
Protocol: as §1

S. aureus (ISP479R) = format: cell-based, Staphylococcus aureus; conditions: MHB, 2–5 × 10^5 CFU/mL, 16–18 h, 37 °C, OD600
Protocol: as §1

S. aureus (ISP479C) = assay: microbe, parasite or virus in culture; format: cell-based, Staphylococcus aureus; conditions: MHB, 2–5 × 10^5 CFU/mL, 16–18 h, 37 °C, OD600
Protocol: as §1

[5] = tested on: mouse red blood cells (RBCs); assay: Hemolysis assay; format: cell-based; conditions: mouse RBC, up to 250 μg/mL, 1 h, 37 °C, PBS pH 7.4; 0.1% Triton X-100 = 100%; data not shown
Protocol: For the experiment, a previously defined procedure was used with slight modifications[67],[68]. Briefly, blood was withdrawn from mice on the day of the experiment. After washing red blood cells (RBC) twice with phosphate buffer saline (PBS: 35 mM sodium phosphate, 150 mM NaCl, pH 7.4), a 4% v/v suspension of RBC was prepared in the same buffer. In a 96-well plate, serial two-fold dilutions of desired concentrations of peptidomimetics (in PBS) were prepared (100 μL) in duplicate. To each well 100 μL of 4% v/v RBC suspension was added. The plates were incubated at 37 °C for 1 h. After 1 h, the plates were centrifuged at 1500 rpm for 10 min and 20 μL of the supernatant was transferred to a fresh 96-well plate containing 80 μL PBS. The hemoglobin release was quantified by measuring OD414 in an ELISA plate reader (Molecular Devices, Sunnyvale, CA, USA). Hemoglobin release from 0.1% Triton X-100 treated RBC was set as 100% lysis (Amax) while as negative control RBC suspended in PBS alone was used (APBS). Percentage hemolysis was calculated using the following equation:1 %hemolysis=[(Asample−APBS)/(Amax−APBS)]×100

MRSA ATCC 33591 = assay: Resistance development over 17 serial passages at sub-MIC; format: cell-based, Staphylococcus aureus; conditions: for MIC: Staphylococcus aureus
Protocol: For the experiment, a method as described previously was used with slight modifications. Briefly, for the experiment, on day 1 the initial MICs of all test agents were determined using routine MIC experiment protocol as described earlier. Next day, bacterial cells (100 μL) from the wells with concentrations 2–4 fold less than the MIC value for each test agent were used to set up fresh mid-log phase cultures in MHB medium for setting up the MIC plate. This was repeated for a total of 17 sub-lethal treatments with each antimicrobial agent. For every passage, corresponding glycerol stocks (15% v/v) were made for each culture and were kept at −80 °C for future use.

| Molecule | Minimum inhibitory concentration, MIC (MRSA (ATCC 43300)) [µg/mL] | Minimum inhibitory concentration, MIC [2] [µg/mL] | Minimum inhibitory concentration, MIC (S. aureus (ISP479R)) [µg/mL] | % hemolysis [5] [%] | other results |
| --- | --- | --- | --- | --- | --- |
| N=C(N)NCCC[C@H](NC(=O)[C@@H](Cc1cccc2ccccc12)NC(=O)CCCCCCCCCCCNC(=O)[C@@H](Cc1cccc2ccccc12)NC(=O)[C@@H](N)CCCNC(=N)N)C(N)=O [S-8, Arg-(D-1-Nal)-(12-ADO)-(D-1-Nal)-Arg-CONH2] (H-R[d1Nal][12Ado][d1Nal]R-NH2) | 1.4 (≈ 1.52 µM) | 1.4 (≈ 1.52 µM) | 0.7 (≈ 0.76 µM) |  | MIC [1]: 5.6 µg/mL (≈ 6.08 µM); % viable cells relative to untreated control (MTT) ([3]; 10× MIC): 84.8 ± 5.6%; % viable cells relative to untreated control (MTT) ([3]; 20 × MIC): 81.1 ± 2.9%; Minimum inhibitory concentration, MIC [4]: 5.6 µg/mL (≈ 6.08 µM) |
| N=C(N)NCCC[C@H](NC(=O)[C@@H](Cc1cccc2ccccc12)NC(=O)CCCCCCCNC(=O)[C@@H](Cc1cccc2ccccc12)NC(=O)[C@@H](N)CCCNC(=N)N)C(N)=O [S-9, Arg-(D-1-Nal)-(8-AOA)-(D-1-Nal)-Arg-CONH2] (H-R[d1Nal][Aoc][d1Nal]R-NH2) | >45.4 | 45.4 (≈ 52.5 µM) | 45.4 (≈ 52.5 µM) | < 5 | Minimum inhibitory concentration, MIC (S. aureus (ISP479C)): 45.4 µg/mL (≈ 52.5 µM) |
| N=C(N)NCCC[C@H](NC(=O)CCCCCCCNC(=O)[C@H](CCCNC(=N)N)NC(=O)[C@@H](N)Cc1c[nH]c2ccccc12)C(=O)N[C@@H](Cc1c[nH]c2ccccc12)C(N)=O [S-5, Trp-Arg-(8-AOA)-Arg-Trp-CONH2] (HELM PEPTIDE1{W.R.[O=C(CCCCCCCN[*:1])[*:2]].R.W.[am]}$$$$V2.0) |  |  |  | < 5 |  |
| O=C(O)c1cn(C2CC2)c2cc(N3CCNCC3)c(F)cc2c1=O [CIP, Ciprofloxacin] |  |  |  |  | MIC (MRSA ATCC 33591; read-out: final MIC): 11.3 µg/mL (≈ 34.1 µM); MIC (MRSA ATCC 33591; read-out: initial MIC): 0.17 µg/mL (≈ 0.513 µM); fold increase in MIC (MRSA ATCC 33591; at 6th passage): ~16 fold; fold increase in MIC (MRSA ATCC 33591; over 17 passages (final MIC / initial MIC)): 66.8 fold |
| WRWRW-NH2 [S-1, Trp-Arg-Trp-Arg-Trp-CONH2] |  |  |  | < 5 |  |
